Results published in ChEMBL document CHEMBL2057180, “Triterpenes from Alisma orientalis act as farnesoid X receptor agonists” (Bioorg Med Chem Lett, 2012).
Activity calls are given as the source filed them. The rule behind the calls is not given here.

What was measured:
HepG2 = experiment: Cytotoxicity against human HepG2 cells; assay type: cell-based
[1] = target: T1, Bile acid receptor (Homo sapiens) (UniProt Q96RI1); experiment: Agonist activity at FXR LBD expressed in human HepG2 cells co-expressing GAL4 DBD and pG5-luc assessed as transrepression of rat CYP7A1 promoter-driven luciferase activity after 48 hrs by transient transfection reporter assay relative to control; assay type: functional, cell-based
T1 sequence (whole entry): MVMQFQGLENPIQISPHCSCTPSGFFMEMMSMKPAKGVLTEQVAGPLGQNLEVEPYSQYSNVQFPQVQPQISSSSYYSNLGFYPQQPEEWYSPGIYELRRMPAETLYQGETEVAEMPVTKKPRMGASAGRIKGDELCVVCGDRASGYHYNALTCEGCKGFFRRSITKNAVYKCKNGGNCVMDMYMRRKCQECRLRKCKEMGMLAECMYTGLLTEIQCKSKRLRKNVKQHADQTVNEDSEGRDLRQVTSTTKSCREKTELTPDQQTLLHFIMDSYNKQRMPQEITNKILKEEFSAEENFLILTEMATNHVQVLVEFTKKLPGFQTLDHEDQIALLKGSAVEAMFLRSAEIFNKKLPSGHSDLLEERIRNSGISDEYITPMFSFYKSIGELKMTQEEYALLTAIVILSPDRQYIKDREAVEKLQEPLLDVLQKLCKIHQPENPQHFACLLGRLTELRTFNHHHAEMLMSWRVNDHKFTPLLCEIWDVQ

[2] = target: T1, Bile acid receptor (Homo sapiens); experiment: Agonist activity at FXR LBD expressed in human HepG2 cells co-expressing GAL4 DBD and pG5-luc assessed as luciferase activity at 1 uM after 48 hrs by transient transfection reporter assay relative to control; assay type: functional, cell-based
[3] = target: T1, Bile acid receptor (Homo sapiens); experiment: Agonist activity at FXR LBD expressed in human HepG2 cells co-expressing GAL4 DBD and pG5-luc assessed as PLTP promoter-driven luciferase activity at 100 nM after 48 hrs by transient transfection reporter assay relative to control; assay type: functional, cell-based
[4] = target: T1, Bile acid receptor (Homo sapiens); experiment: Agonist activity at FXR LBD expressed in human HepG2 cells co-expressing GAL4 DBD and pG5-luc assessed as transrepression of rat CYP7A1 promoter-driven luciferase activity at 100 nM after 48 hrs by transient transfection reporter assay relative to control; assay type: functional, cell-based
[5] = target: T1, Bile acid receptor (Homo sapiens); experiment: Agonist activity at FXR LBD expressed in human HepG2 cells co-expressing GAL4 DBD and pG5-luc assessed as luciferase activity at 100 nM after 48 hrs by transient transfection reporter assay relative to control; assay type: functional, cell-based
[6] = target: T1, Bile acid receptor (Homo sapiens); experiment: Agonist activity at FXR LBD expressed in human HepG2 cells co-expressing GAL4 DBD and pG5-luc assessed as SHP promoter-driven luciferase activity at 100 nM after 48 hrs by transient transfection reporter assay relative to control; assay type: functional, cell-based
[7] = target: T1, Bile acid receptor (Homo sapiens); experiment: Agonist activity at FXR LBD expressed in human HepG2 cells co-expressing GAL4 DBD and pG5-luc assessed as SHP promoter-driven luciferase activity at 1 uM after 48 hrs by transient transfection reporter assay relative to control; assay type: functional, cell-based
[8] = target: T1, Bile acid receptor (Homo sapiens); experiment: Agonist activity at FXR LBD expressed in human HepG2 cells co-expressing GAL4 DBD and pG5-luc assessed as PLTP promoter-driven luciferase activity after 48 hrs by transient transfection reporter assay relative to control; assay type: functional, cell-based

Activity [1] | Ratio [2] | Activity [3] | Activity [4] | Activity [5] | Activity [6] | Ratio [7] | Activity [8] | Compound | Activity (HepG2)
Dose-dependent effect | 2 | inactive | 85% | inactive | inactive | 1.6 | Dose-dependent effect | CC(=O)O[C@@H](C[C@@H](C)C1=C2[C@H](O)[C@H](O)[C@H]3[C@@]4(C)CCC(=O)C(C)(C)[C@@H]4CC[C@]3(C)[C@@]2(C)CC1=O)[C@H]1OC1(C)C | Non-toxic
Dose-dependent effect | 2 | inactive | inactive | inactive | inactive | 1.6 | Dose-dependent effect | CC(=O)O[C@@H](C[C@@H](C)C1=C2C[C@H](O)[C@H]3[C@@]4(C)CCC(=O)C(C)(C)[C@@H]4CC[C@]3(C)[C@@]2(C)CC1)[C@@H](O)C(C)(C)O | Non-toxic
 |  |  |  |  |  |  |  | C[C@H](C[C@H](O)[C@H]1OC1(C)C)C1=C2C[C@H](O)[C@H]3[C@@]4(C)CCC(=O)C(C)(C)[C@@H]4CC[C@]3(C)[C@@]2(C)CC1 [ALISOL B] | Toxic
